“And” between values parts separate entries of the source, which are not always exact repeats. Equal entries are not always repeated.
Columns and labels:
[1] = test system: peripapillary sclera; assay: Photographic circumferential strain analysis during IOP elevation, peripapillary sclera; set-up: species or system porcine; conditions: Group 3; GTA on PS only; IOP 2-4 to 80 mmHg
Method: (§1) Eighteen porcine globes were divided evenly into 3 groups. The optic nerves were transected to expose the ON/LC, and each globe was infused through an in-line pressure transducer for direct IOP control. Surface wave velocity, a non-destructive measure of tissue stiffness, was measured across the ON/LC and PS before and after collagen crosslinking at IOP of 10 and 30 mmHg (groups 1 and 2) and at each globe's preinflation IOP and 80 mmHg (group 3). In group 3, papillary strain was measured by analyzing the displacement of fiducial marks immediately adjacent to the ON/LC using digital photography.
In group 3 (n=6), the same procedure described for group 2 was implemented with the following exceptions. First, four fiducial ink marks were placed in each quadrant of the PS immediately adjacent to the ON/LC prior to measurement. High-resolution (7.1 megapixel) digital photos were then taken at both low and high IOP before and after crosslinking. The vertical and horizontal distances between the outer extent of the ink marks and the outer margins of the optic nerve were measured in Photoshop (Adobe Systems, Inc., San Jose, Calif.), and the centripetal displacement of the fiducial marks (Δ1) was divided by the initial distance between the marks (10) to yield dimensionless indicators of circumferential strain (ζ=Δ1/10) in the peripapillary sclera and ON/LC, respectively. Second, measurements were acquired at each eye's pre-inflation pressure (between 2 to 4 mmHg) and at 80 mmHg to ensure that measurable changes in SWV and ON/LC geometry would be generated in at least one experimental group. As in group 2, the peripapillary sclera was selectively exposed to GTA and post-crosslinking measurements were repeated at low and high IOP. Same-eye statistical comparisons of wave velocity and strain were performed with paired student's t-tests.

[2] = test system: peripapillary sclera; assay: Surface wave velocity (stiffness) of the peripapillary sclera of whole globes, Sonic Eye elastometer; set-up: species or system porcine; conditions: for Mean PPS Stiffness, After Glutaraldehyde Crosslinking: Example 2, GTA annular sponge on PS only ~30 min; for Stiffness of Peripapillary Sclera, Post-crosslinking Mean ± SD: 4% GTA on PS only 30 min
Method: Surface wave velocity (SWV) is a measure of tissue stiffness, and is performed by detecting the velocity of an ultrasonic wave between 2 points (Sonic Eye, Priavision, Menlo Park, Calif.) (Dupps W J, et al., J Refract Surg; 23: 66-75 (2007)). 19 porcine eyes were divided into 2 groups. In group 1 (6 eyes), the SWV across the exposed optic nerve/lamina cribrosa complex (ON/LCC) was initially measured at the eyes' physiologic IOP and at 100 mmHg. The porcine globes were cannulated with IV tubing to facilitate the change in IOP. In group 2 (13 eyes), the pre-treatment SWV was measured across the same region and atop the peri-papillary sclera, after which both regions were treated with riboflavin 1%, Q 5 min×6, and UVA irradiation (˜365 nm at 3 mW/cm^2) for 30 min per eye. The SWV was then re-measured in each eye at the pre-treatment IOP and at 100 mmHg.
An annular sponge soaked in GTA was exposed to the peripapillary sclera for ˜30 minutes, and not the ON/LCC. Measurements were repeated as above, but also along each quadrant of peripapillary sclera to ensure uniformity and symmetry of crosslinking around the ON/LCC. The results are summarized as follows:
as §1
Surface wave velocity (SWV) is a measure of tissue stiffness that has been used in dermatologic applications to measure age-related changes (Potts R O, et al., J Invest Dermatol.; 82(1):97-100 (1984); Potts R O, et al., J Biomech.; 16(6):365-372 (1983); Davis B R, et al., Exp Gerontol; 24(3):201-210 (1989)), softening effects of tissue hydration and skin creams (Vexler A, et al., J Invest Dermatol; 113(5):732-739 (1999)), and sclerosing effects of radiation on breast skin (Gorodetsky R, et al., Int J Radiat Oncol Biol Phys.; 45(4):893-900 (1999)). When acoustic waves in the 0.5 to 30 kHz frequency range are used, propagation speed in skin is related to the density and stiffness of the tissue (Pereira J M, et al., J Biomech.; 23(8):745-751 (1990)). A prototype handheld ocular surface elastometer (Sonic Eye, Priavision, Menlo Park, Calif.) with an operating frequency within this range (4 kHz) and a fixed 4.5 mm wave propagation distance has been described in detail elsewhere (Dupps W J Jr, et al., J Refract Surg.; 23(1):66-75 (2007)). The Sonic Eye was used in this study as a non-destructive means of measuring local in situ tissue stiffness across and around the optic nerve head.
Eighteen porcine eyes were obtained from a local abattoir (Heffelfingers Meats, Inc., Jeromesville, Ohio) and were used within 24 hours postmortem. The optic nerves were dissected under microscopic visualization to expose the ON/LC (FIG. 1). […] Replicate SWV measurements were obtained at a rate of 1 per second with a triggering foot pedal to produce at least 5 measurements that were subsequently averaged for each region of interest. A PC software interface converted the time-of-flight data to velocity in meters per second (m/s), and the velocity data were exported to Excel (v. 11, SP2; Microsoft Corp, Redmond, Wash.) and Minitab (v. 14.20; Minitab Inc, State College, Pa.) for statistical analysis.
Three experimental groups of 6 eyes each were defined. In group 1, SWV across the optic nerve/lamina cribrosa complex and peripapillary scleral regions of interest were measured at 10 and 30 mmHg to represent a physiological range of pressures. […]

## O=CCCCC=O [GTA, glutaraldehyde]
[1]
  Average Circumferential Strain of PS with IOP elevation, Post-Crosslinking Mean ± SD: 0.38% and 0.4 ± 1.3%
  Horizontal Circumferential Strain of PS with IOP elevation, Post-Crosslinking Mean ± SD: 0.0 ± 0.0%
  Vertical Circumferential Strain of PS with IOP elevation, Post-Crosslinking Mean ± SD: 0.7 ± 1.9%
[2]; mean IOP 3 mmHg
  Mean PPS Stiffness, After Glutaraldehyde Crosslinking: 83.6 m/s
[2]; mean IOP 80 mmHg
  Mean PPS Stiffness, After Glutaraldehyde Crosslinking: 97.9 m/s
[2]; Example 3 Group 2, High IOP 30 mmHg
  Stiffness of Peripapillary Sclera, Post-crosslinking Mean ± SD: 197.0±35.6 m/s
[2]; Example 3 Group 2, Low IOP 10 mmHg
  Stiffness of Peripapillary Sclera, Post-crosslinking Mean ± SD: 148.4±43.0 m/s
[2]; Example 3 Group 3, High IOP 80 mmHg
  Stiffness of Peripapillary Sclera, Post-crosslinking Mean ± SD: 190.2±45.8 m/s
[2]; Example 3 Group 3, Low IOP = pre-inflation 2-4 mmHg
  Stiffness of Peripapillary Sclera, Post-crosslinking Mean ± SD: 149.9±35.7 m/s

Reference: patent US8580789B2, “Treating glaucoma” (The Cleveland Clinic Foundation, priority 2007, dated 2013)
